Holding throughout (experiment): growth of human tumour cells (NCI), 48 h
The test system of test [1] is UACC-62 melanoma.
Test [2] deals with HS 578T breast.
Test [3] deals with MOLT-4 leukemia.
Test [4] has as its system SR leukemia.
In test [5] the test system is ACHN renal.
In test [6] the test system is NCI/ADR-RES ovarian.
Test [7] concerns SF-295 CNS.
Test [8] concerns A498 renal.
For test [9], the system named is HCC-2998 colon.
Test [10] concerns RXF 393 renal.

We go through 12 molecules from PubChem BioAssay (NCI).

The structures appear in SMILES notation.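 Grown in 96-well plates, cells were treated for 48 hours with each compound at five concentrations. Insufficient inhibition: endpoint recorded as highest concentration tested. TGI denotes the concentration required for complete inhibition of growth.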

For `O=C1/C(=C/c2ccc(O)cc2)NC(=S)N1CN1CCCCC1`, the TGI in [1], in test [2], in [3], in test [4], in test [5] and in test [6] was more than 100 µM each time. The TGI in [7] and in test [8] was more than 100 µM throughout.
Take `CN(Cc1cnc2nc(N)nc(N)c2n1)c1ccc(C(=O)NC(CCS(=O)(=O)O)C(=O)O)cc1` (stereo not given): the TGI in test [1], in test [2], in [3], in test [4], in test [5] and in [6] was more than 100 µM each time. For the same molecule, the TGI in test [9], in [7] and in test [8] was more than 100 µM each time.
As for `O=C(ON=c1c2ccccc2ccc2ccccc12)c1cc([N+](=O)[O-])cc([N+](=O)[O-])c1`, the TGI in test [10], in test [1], in test [2], in test [3], in test [4] and in test [5] was more than 100 µM throughout. Also, the TGI in [6], in test [9] and in test [7] was more than 100 µM throughout.
In the case of `O=C(Nc1ccc(Cl)cc1)c1cc(S(=O)(=O)Nc2n[nH]c(=O)[nH]2)c(SSc2cc(Cl)c(C(=O)Nc3ccc(Cl)cc3)cc2S(=O)(=O)Nc2n[nH]c(=O)[nH]2)cc1Cl`, the TGI in test [1], in test [2], in test [3], in test [4], in test [5] and in test [6] was more than 100 µM in each case. Further, the TGI in [9], in test [7] and in test [8] was more than 100 µM each time.
With `CCOC(=O)C(SCCO)C(C(=O)OCC)n1ccc(N)nc1=O` (stereo not given), the TGI in [1], in test [2], in test [3], in test [4], in test [5] and in test [6] was more than 100 µM in each case. In addition, the TGI in [9], in [7] and in test [8] was more than 100 µM in each case.
As for `CC1=CC(c2ccccc2)OP1(=O)c1ccccc1` (stereo not given), the TGI in test [1], in [2], in test [4], in [5], in test [6] and in [9] was more than 100 µM throughout. The TGI in test [7] and in test [8] was more than 100 µM throughout.
On to `CS(C)(=O)=N/C=C\C(=O)C(Cl)(Cl)Cl`, for which the TGI in test [10], in test [1], in test [2], in test [3], in test [4] and in test [5] was more than 100 µM throughout. Besides, the TGI in [6], in test [9] and in test [7] was more than 100 µM each time.
On to `CSC1=N/C(=C\c2cccs2)C(=O)N1CN1CCOCC1`, for which the TGI was more than 100 µM in test [1]; more than 100 µM in test [2]; more than 100 µM in test [3]; more than 100 µM in test [4]; more than 100 µM in test [5]; 90.5 µM in test [6]. Besides, the TGI in test [7] and in test [8] was more than 100 µM in each case.
`NC(=O)c1cnc2sc3ccccc3n2c1=O`: the TGI in test [10], in [1], in test [2], in test [3], in test [4] and in [5] was more than 100 µM each time. Further, the TGI in test [6], in [9] and in test [7] was more than 100 µM in each case.
Consider `NS(=O)(=O)c1ccc(NNC(=O)c2cccc3c(=O)c4ccccc4[nH]c23)cc1`, for which the TGI in [10], in test [1], in test [2], in test [3], in [4] and in test [5] was more than 100 µM throughout. Also, the TGI in [6], in [9] and in [7] was more than 100 µM throughout.
With `Cc1ccnc(NS(=O)(=O)c2ccc(NC(=O)c3ccc4nc5ccccc5c(Nc5ccc(S(=O)(=O)Nc6nccc(C)n6)cc5)c4c3)cc2)n1`, the TGI in test [10] is 51.2 µM; in [1] it was more than 100 µM; in [2] it was more than 100 µM; in [3], more than 100 µM; in test [4] it was 55.6 µM; in test [5], more than 100 µM. The TGI in [6], in test [9] and in test [7] was more than 100 µM in each case.
With `NC(CCCCCP(=O)(O)O)C(=O)O` (stereo not given), the TGI in [10], in test [1], in [2], in test [3], in test [4] and in [5] was more than 100 µM throughout. In addition, the TGI in test [6], in test [9] and in test [7] was more than 100 µM in each case.
